# Measurements taken from US9771394B2, “Antimicrobial polymyxins for treatment of bacterial infections” (priority 2014, dated 2017).
# Values joined by “and” are separate entries in the source; they are usually repeats but may differ in a detail not shown here. Equal entries are not always repeated. Where two headings read alike, the source gives them in different places. Marks after values point to notes of the source that are not given here. Starred links: 1 amine or outer side, 2 acyl side, 3 side chain; linkers in the order of their positions; H or OH if unused. Positions of bridges follow the written chain, without caps; N, C: chain ends. Non-standard residues stand in square brackets, D forms with d. Residues, ends and D or L forms follow the SMILES beside them. ξ: configuration not given here. *: point of attachment. Thr(3ξ) = CC(O)[C@H](N)C(=O)O; Suc = O=C(CCC(=O)[*:2])[*:1]; X2 = CCCC(C)OC(=O)CCC(=O)*; X5 = CCCCOP(=O)(O)CC(=O)*; Dab = NCC[C@H](N)C(=O)O
# How the values were obtained:
# P. aeruginosa [1] = experiment: P. aeruginosa thigh infection mouse model, IV dosing; format: in vivo, Pseudomonas aeruginosa; settings: CFU change at 12 h vs no treatment control, PMB values in parenthesis side-by-side
# Text: (§1) A lower ED50 value indicates a higher therapeutic efficacy of the drug. The number of surviving animals (from the total number of infected animals used at a given drug dose) is another indicator of efficacy. […] In thigh and lung infection models, a greater reduction in the bacterial colony-forming units (CFU) indicates stronger beneficial therapeutic effect (more bacterial eradication), while a lower CFU reduction or an increase in CFU value indicates a lower effect (less bacterial eradication), or an absence of the therapeutic effect.
# human HK-2 cell = experiment: Human HK-2 cell cytotoxicity assay (in vitro nephrotoxicity); format: cell-based
# Text: (§2) Nephrotoxicity of polymyxins could be determined in vitro using human renal […] (HK-2) cytotoxicity assay, analogously to that described, for example, by Keirstead et al. in Toxicol. Sci., 2014, vol. 137, pp. 278-291. In vivo, nephrotoxicity could be determined using urine biomarker assays, such as clinically validated neutrophil gelatinase-associated lipocalin (NGAL) assay described, for example by Devarajan in Scand. J. Clin. Lab. Invest. Suppl., 2008, vol. […], pp. 89-94.
# P. aeruginosa PAE 1001 = format: cell-based, Pseudomonas aeruginosa
# Text: (§3) In vitro activity of compounds provided herein may be assessed by standard testing procedures such as the determination of minimum inhibitory concentration (MIC, μg/mL) just as described in “Methods for Dilution Antimicrobial Susceptibility Tests for Bacteria That Grow Aerobically; Approved Standard—Ninth Edition,” published in 2012 by the Clinical and Laboratory Standards Institute, Wayne, Pa., USA. Thus, bacterial colonies grown overnight on Mueller-Hinton Agar plate were selected and suspended in sterile saline to a turbidity of about 80% transmittance, as measured by a spectrophotometer. The suspension was diluted 200-fold with cation-adjusted Mueller-Hinton broth to serve as the inoculum for testing. Two-fold serial dilutions of the test compound were performed in 96-well master plate to arrive at desired concentration. Samples of 10 microliter from each well of the master plate were transferred into respective wells of 96-well assay plate. Bacterial inoculum (90 microliter) was introduced into each well of the assay plate. The assay plate was placed in the incubator at 35° C. for about 24 h (without agitation) followed by the MIC determination. MIC values were determined based on the presence or absence of bacterial growth in wells at the given test agent concentration. MIC value is defined as the lowest concentration of test antibiotic that prevents visible bacterial growth.
# (§4) The useful activity of exemplary compounds described herein against Gram-negative pathogens Pseudomonas aeruginosa, Escherichia coli, or Klebsiela pneumoniae is illustrated by the MIC data of Table 1.
# P. aeruginosa [2] = experiment: P. aeruginosa lung infection (pneumonia) mouse model, SC dosing; format: in vivo, Pseudomonas aeruginosa; settings: for Relative CFU count, vs. PMB: mouse lung infection, 10 mg/kg; for P. aeruginosa Lung infection model ΔlogCFU at 10 mg/kg: mouse, CFU change at 24 h vs starting inoculum
# Text: as §1
# [3] = Stability in human plasma at 37° C.; format: in vitro ADME
# Protocol: Exemplary compounds of this invention were tested for stability in human plasma at 37° C., replicating in vivo conditions of mammalian blood. Plasma stability for select compounds was performed as follows. Human plasma (K2 EDTA) was obtained from Bioreclamation. The assay was carried out in 96-well microtiter plates. Test compounds were incubated in duplicate at 37° C. in the presence of plasma. Reaction mixtures (25 μL) contained a final concentration of 25 μM test compound. The extent of metabolism was calculated as the disappearance of the test compound over time. Eucatropine was included as a positive control to verify assay performance. At each given time point, 100 μL of quench solution (100% MeCN with 0.1% HCOOH) with internal standard was transferred to each well. Plates were sealed, vortexed, and centrifuged at 4° C. for 15 minutes at 4,000 rpm. The supernatant was transferred to fresh plates for LC/MS/MS analysis. The formation of a potential metabolite was monitored in all samples. The samples were analyzed on LC/MS/MS using an AB Sciex API 4000 instrument, coupled to a Shimadzu LC-20AD LC Pump system. Analytical samples were separated using a Waters Atlantis T3 dC18 reverse phase HPLC column (20 mm×2.1 mm) at […] a flow rate of 0.5 mL/min, eluting with 0.1% aq. HCOOH and 0.1% HCOOH in MeCN (using gradient from 2% to 98% of the latter). Remaining test compounds were quantified via MS/MS ion current.
# E. coli WECO 1003 = format: cell-based, Escherichia coli
# Text: as §3, §4
# K. pneumoniae KPN1004 = format: cell-based, Klebsiela pneumoniae
# Text: as §3, §4
# E. coli = E. coli septicemia (systemic) mouse model, IV dosing; format: in vivo, Escherichia coli; settings: PMB values are side-by-side comparator; for number (A) of surviving animals out of total (B) mice, A/B: at 5 mg/kg
# Text: as §1
# [4] = test system: Gram-negative pathogens Pseudomonas aeruginosa, Escherichia coli, or Klebsiela pneumoniae; experiment: MIC, Gram-negative panel of Table 1; format: cell-based
# Text: In vitro activity of compounds provided herein may be assessed by standard testing procedures such as the determination of minimum inhibitory concentration (MIC, μg/mL) just as described in “Methods for Dilution Antimicrobial Susceptibility Tests for Bacteria That Grow Aerobically; Approved Standard—Ninth Edition,” published in 2012 by the Clinical and Laboratory Standards Institute, Wayne, Pa., USA. Thus, bacterial colonies grown overnight on Mueller-Hinton Agar plate were selected and suspended in sterile saline to a turbidity of about 80% transmittance, as measured by a spectrophotometer. The suspension was diluted 200-fold with cation-adjusted Mueller-Hinton broth to serve as the inoculum for testing. Two-fold serial dilutions of the test compound were performed in 96-well master plate to arrive at desired concentration. Samples of 10 microliter from each well of the master plate were transferred into respective wells of 96-well assay plate. Bacterial inoculum (90 microliter) was introduced into each well of the assay plate. The assay plate was placed in the incubator at 35° C. for about 24 h (without agitation) followed by the MIC determination. MIC values were determined based on the presence or absence of bacterial growth in wells at the given test agent concentration. MIC value is defined as the lowest concentration of test antibiotic that prevents visible bacterial growth. […]
# [5] = test system: neutrophil gelatinase-associated lipocalin (NGAL); experiment: Rat urine NGAL biomarker assay (in vivo nephrotoxicity); settings: repeated dose, 25 mg/kg/day QID, SC, Low = signal similar to the background
# Text: as §2
# [6] = 35° C., about 24 h, cation-adjusted Mueller-Hinton broth
Compound,"P. aeruginosa Thigh model, IV dosing ΔlogCFU at 5 mg/kg (P. aeruginosa [1])",HK-2 cytotoxicity class (human HK-2 cell),IC50 (human HK-2 cell),"Antibacterial activity (MIC) P. aeruginosa PAE 1001 (P. aeruginosa PAE 1001; PAE 1001, 24 h)","Relative CFU count, vs. PMB (P. aeruginosa [2])",P. aeruginosa Lung infection model ΔlogCFU at 10 mg/kg (P. aeruginosa [2]),"Antibacterial activity (MIC) E. coli WECO 1003 (E. coli WECO 1003; WECO 1003, 24 h)","Antibacterial activity (MIC) K. pneumoniae KPN1004 (K. pneumoniae KPN1004; KPN1004, 24 h)",Antibacterial activity (MIC) P. aeruginosa PAE 1001 (P. aeruginosa PAE 1001; [6]),Antibacterial activity (MIC) E. coli WECO 1003 (E. coli WECO 1003; [6]),Antibacterial activity (MIC) K. pneumoniae KPN1004 (K. pneumoniae KPN1004; [6]),other results
CCCC(C)OC(=O)CCC(=O)N[C@@H](CCN)C(=O)N[C@H](C(=O)N[C@@H](CCN)C(=O)N[C@H]1CCNC(=O)[C@H](C(C)O)NC(=O)[C@H](CCN)NC(=O)[C@H](CCN)NC(=O)[C@H](CC(C)C)NC(=O)[C@@H](Cc2ccccc2)NC(=O)[C@H](CCN)NC1=O)C(C)O (stereo partly shown) [Example 18] (X2-[Dab][Thr(3ξ)][Dab][Dab][Dab][dF]L[Dab][Dab][Thr(3ξ)]; lactam 4-C),−1.29,Class 4,> 200 µM,2 µg/mL,4.8 × 10^−6,−2.70,2 µg/mL,4 µg/mL,–,–,–,"remaining at 1 h, 25 μM ([3]; human, plasma): 66%; remaining at 4 h, 25 μM ([3]; human, plasma): 18%; E. coli Systemic model, IV dosing ED50 (E. coli): 7.5 mg/kg; number (A) of surviving animals out of total (B) mice, A/B (E. coli): 3/6"
CC(C)C[C@@H]1NC(=O)[C@@H](Cc2ccccc2)NC(=O)[C@H](CCN)NC(=O)[C@@H](NC(=O)[C@H](CCN)NC(=O)[C@@H](NC(=O)[C@H](CCN)NC(=O)CCC(=O)O)C(C)O)CCNC(=O)[C@H](C(C)O)NC(=O)[C@H](CCN)NC(=O)[C@H](CCN)NC1=O (stereo partly shown) [Example 19] (Suc-[Dab][Thr(3ξ)][Dab][Dab][Dab][dF]L[Dab][Dab][Thr(3ξ)]; lactam 4-C),−0.14,Class 4,> 200 µM,4 µg/mL,–,–,>32 µg/mL,>32 µg/mL,–,–,–,"antibacterial activity in words (MIC, Table 1) ([4]; Example 19: against two Gram-negative pathogens in the test): essentially inactive"
CCCCOP(=O)(O)CC(=O)N[C@@H](CCN)C(=O)N[C@H](C(=O)N[C@@H](CCN)C(=O)N[C@H]1CCNC(=O)[C@H](C(C)O)NC(=O)[C@H](CCN)NC(=O)[C@H](CCN)NC(=O)[C@H](CC(C)C)NC(=O)[C@@H](Cc2ccccc2)NC(=O)[C@H](CCN)NC1=O)C(C)O (stereo partly shown) [Example 33] (X5-[Dab][Thr(3ξ)][Dab][Dab][Dab][dF]L[Dab][Dab][Thr(3ξ)]; lactam 4-C),–,–,–,–,–,–,–,–,8 µg/mL,8 µg/mL,8 µg/mL,fold less active than polymyxin B comparator (MIC) ([4]; vs polymyxin B): about 2 fold
polymyxin B [reference compound],–,–,–,–,1,+2.61,–,–,2-4^a μg/mL,2-4^a μg/mL,2-4^a μg/mL,"P. aeruginosa Thigh model, IV dosing ΔlogCFU at 5 mg/kg (P. aeruginosa [1]; listed as Polymyxin B (PMB)): −1.49 to −3.33; HK-2 cytotoxicity class (human HK-2 cell; HK-2 cytotoxicity, Eurofins Cerep): Class 1; IC50 (human HK-2 cell; HK-2 cytotoxicity, Eurofins Cerep, read-out: In vitro: human HK-2 cell assay IC50): 82 µM; Compound remaining, % T = 1.0 h ([3]; human plasma, 37° C., 25 μM, 1.0 h): 100^a^ %; Compound remaining, % T = 4.0 h ([3]; human plasma, 37° C., 25 μM, 4.0 h): 100^a %; In vivo: rat urine biomarker NGAL [5]: High: above detection; E. coli Systemic model, IV dosing ED50 (E. coli; listed as PMB): 4.6 mg/kg and 3.9 mg/kg and 2.5 mg/kg; E. coli Systemic model, IV dosing ED50 (E. coli; listed as Polymyxin B (PMB)): 4 to 7 mg/kg; number (A) of surviving animals out of total (B) mice, A/B (E. coli; listed as PMB): 2/6 and 5/6 and 3/6"
